The values that follow come from US9217157B2, “Recombinant influenza viruses and uses thereof” (Icahn School of Medicine at Mount Sinai, priority 2009, dated 2015).

The structures appear in SMILES notation.

The test system of assay [1] is NS1-GFP virus. The arrangement: species or system influenza A virus. As to conditions: in vivo.
Assay [2] relates to NS1-GFP virus. In kind it is in vivo, influenza A virus.

`NC12CC3CC(CC(C3)C1)C2` [amantadine]: in the assay on NS1-GFP virus [1], the “effect on NS1-GFP infection in different cell types, in words” value was “most effective in blocking infection of NK and B cells, but was less potent for other cell types”; the “prevention of infection in B and NK cells” value is recorded as 3-4 fold; the “reduction in infection of CD11b+ CD11c+ cells” value is 50%; the “reduction in infection of epithelial (CD45-) cells” value turned out to be 50%.
With `CCOC(=O)C1=C[C@@H](OC(CC)CC)[C@H](NC(C)=O)[C@@H](N)C1` [oseltamivir], in the assay on NS1-GFP virus [1], the “effect on NS1-GFP infection in different cell types, in words” value is “dramatically reduced infection rate in all of the examined cell types”; the “number of infiltrating cells (inflammatory monocytes and neutrophils), in words” value is reported as “dramatically lower than in amantadine treated mice”. The “GFP fluorescence intensity of lungs lower than in untreated mice” value in the assay with NS1-GFP virus [2] (day 2 post-infection, 10^6 pfu, 50 mg/Kg once daily from day of infection) lay within 3 to 5 fold. For the same molecule, in the assay with NS1-GFP virus [2] (day 4 post infection, treatment from day of infection), the “spread of GFP signal in lungs, in words” value is on record as “significantly restricted the spread of viral infection”. The “GFP fluorescence signal in lungs vs no treatment, in words” value with NS1-GFP virus [2] (day 4 post infection, treatment started two days after infection (day+2)) is “no significant difference”.
